biological target: human GLP-1R (Homo sapiens, UniProt P43220); test: GLP-1R Cell Assay 1: cAMP Hunter CHO-K1 GLP1R Gs cell line, HitHunter cAMP assay; format: cell-based; details: Table 2; cAMP Hunter CHO-K1 GLP1R Gs cells; percent activity normalized to Exendin-4
Protocol: GLP-1R mediated agonist activity was determined using the cAMP Hunter CHO-K1 GLP1R Gs cell line (DiscoverX, cat# 95-0062C2), a stable CHO-K1 derived cell lines overexpressing naturally Gs coupled wild-type human GLP-1R (accession number: NM_002062.3). GLP-1R agonism in this cell line was detected by measuring cellular cAMP levels using the HitHunter cAMP assay kit (cat# 90-0075SM2), a homogenous, gain-of-signal competitive immune assay based on Enzyme Fragment Complementation (EFC) technology. In this system cellular cAMP competes with exogenous labeled cAMP (ED-cAMP) for binding to an anti-cAMP antibody. […] The luminescent signal is directly proportional to the amount of cellular cAMP.
For compound testing, cells were seeded in a total volume of 20 μL in white walled, 384-well microplates and incubated at 37° C. prior to compound testing. Prior to compound addition, cell culture media was removed by aspiration and replaced with 15 pt reagent buffer (2:1 HBSS/10 mM HEPES: cAMP XS+Ab reagent). Compounds were dissolved in DSMO and serially diluted (3-fold) prior to final dilution to 4X in assay buffer. Samples (5 μL) were added to cells and incubated at 37° C. for […] prior to 1 hour incubation with 20 pt cAMP XS+ED/CL lysis reagent and 3 hour incubation with 20 μL cAMP XS+EA reagent at room temperature. Microplates were read on a PerkinElmer Envision instrument. Compound activity was analyzed using CBIS data analysis suite (ChemInnovation). Percent activity was calculated based on duplicate assay runs and normalized to the positive control Exendin-4, a GLP-1R peptide agonist, using the following formula: […]
The effective compound concentration resulting in 50% response (EC50) was determined by non-linear regression analysis of dose-response curves.

Chain of human GLP-1R (P43220 24-463): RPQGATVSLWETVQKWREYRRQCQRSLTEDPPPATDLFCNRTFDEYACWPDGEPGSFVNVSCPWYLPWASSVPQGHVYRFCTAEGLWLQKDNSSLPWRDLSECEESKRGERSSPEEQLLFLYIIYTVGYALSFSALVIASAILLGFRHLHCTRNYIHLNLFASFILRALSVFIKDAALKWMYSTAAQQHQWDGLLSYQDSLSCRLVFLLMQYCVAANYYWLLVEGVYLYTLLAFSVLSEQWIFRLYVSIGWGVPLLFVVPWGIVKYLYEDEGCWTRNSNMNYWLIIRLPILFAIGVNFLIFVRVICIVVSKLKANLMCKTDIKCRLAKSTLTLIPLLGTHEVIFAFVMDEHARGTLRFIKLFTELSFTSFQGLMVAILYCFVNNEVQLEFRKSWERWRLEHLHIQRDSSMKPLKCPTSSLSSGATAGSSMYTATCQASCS

Structure (SMILES)	EC50 [nM]
N#Cc1ccc2c(c1)CN(c1ccn(C3CCN(Cc4nc5ccc(C(=O)O)cc5n4C[C@@H]4CCO4)CC3)n1)CC2 [Compound 25, (S)-2-((4-(3-(7-cyano-3,4-dihydroisoquinolin-2(1H)-yl)-1H-pyrazol-1-yl)piperidin-1-yl)methyl)-1-(oxetan-2-ylmethyl)-1H-benzo[d]imidazole-6-carboxylic acid]	> 500
O=C(O)c1ccc2nc(CN3CCC(c4cccc(OCc5nc6ccccc6s5)n4)CC3)n(C[C@@H]3CCO3)c2c1 [Compound 14, (S)-2-((4-(6-(benzo[d]thiazol-2-ylmethoxy)pyridin-2-yl)piperidin-1-yl)methyl)-1-(oxetan-2-ylmethyl)-1H-benzo[d]imidazole-6-carboxylic acid]	0.246
O=C(O)c1ccc2nc(CN3CCN(c4cccc(OCc5ccc6ocnc6c5)n4)CC3)n(C[C@@H]3CCO3)c2c1 [Compound 103, (S)-2-((4-(6-(benzo[d]oxazol-5-ylmethoxy)pyridin-2-yl)piperazin-1-yl)methyl)-1-(oxetan-2-ylmethyl)-1H-benzo[d]imidazole-6-carboxylic acid]	5.54
N#Cc1ccc(COc2cccc(N3CCN(Cc4nc5ccc(C(=O)O)cc5n4C[C@@H]4CCS4(=O)=O)CC3)n2)c(F)c1 (single isomer, unassigned) [Compound 140-P1]	0.571
O=C(O)c1ccc2nc(CN3CCN(c4cccc(OCC5CC(F)(F)C5)n4)CC3)n(C[C@@H]3CCO3)c2c1 [Compound 50, (S)-2-((4-(6-((3,3-difluorocyclobutyl)methoxy)pyridin-2-yl)piperazin-1-yl)methyl)-1-(oxetan-2-ylmethyl)-1H-benzo[d]imidazole-6-carboxylic acid]	202
N#Cc1ccc(COc2cccc(C3CCN([C@H]4CCCn5c4nc4ccc(C(=O)O)cc45)CC3)n2)c(F)c1 [Compound 89, (S)-4-(4-(6-((4-cyano-2-fluorobenzyl)oxy)pyridin-2-yl)piperidin-1-yl)-1,2,3,4-tetrahydrobenzo[4,5]imidazo[1,2-a]pyridine-8-carboxylic acid]	76.2
O=C(O)c1ccc2nc(CN3CCC(n4ccc(OCc5nc6ccccc6s5)n4)CC3)n(C[C@@H]3CCO3)c2c1 [Compound 101, (S)-2-((4-(3-(benzo[d]thiazol-2-ylmethoxy)-1H-pyrazol-1-yl)piperidin-1-yl)methyl)-1-(oxetan-2-ylmethyl)-1H-benzo[d]imidazole-6-carboxylic acid]	28.7
CCn1cncc1Cn1c(CN2CC[C@]3(c4cccc(OCc5ccc(C#N)cc5F)n4)C[C@@H]3C2)nc2ccc(C(=O)O)cc21 (single isomer, unassigned) [Compound 121-P2]	0.0386
Cc1cn(C2CCN(Cc3nc4ccc(C(=O)O)cc4n3C[C@@H]3CCO3)CC2)nc1OCc1ccccc1 [Compound 24, (S)-2-((4-(3-(benzyloxy)-4-methyl-1H-pyrazol-1-yl)piperidin-1-yl)methyl)-1-(oxetan-2-ylmethyl)-1H-benzo[d]imidazole-6-carboxylic acid]	350
O=C(O)c1ccc2nc(CN3CCN(c4cccc(OCc5ccc6ccccc6c5)n4)CC3)n(C[C@@H]3CCO3)c2c1 [Compound 70, (S)-2-((4-(6-(naphthalen-2-ylmethoxy)pyridin-2-yl)piperazin-1-yl)methyl)-1-(oxetan-2-ylmethyl)-1H-benzo[d]imidazole-6-carboxylic acid]	1.19
O=C(O)c1ccc2nc(CN3CCN(c4cccc(OCC5CCC(F)(F)CC5)n4)CC3)n(C[C@@H]3CCO3)c2c1 [Compound 36, (S)-2-((4-(6-((4,4-difluorocyclohexyl)methoxy)pyridin-2-yl)piperazin-1-yl)methyl)-1-(oxetan-2-ylmethyl)-1H-benzo[d]imidazole-6-carboxylic acid]	36.4
N#Cc1ccc2c(c1)CN(c1cccc(N3CCN(Cc4nc5ccc(C(=O)O)cc5n4C[C@@H]4CCO4)CC3)n1)CCC2 [Compound 66, (S)-2-((4-(6-(8-cyano-1,3,4,5-tetrahydro-2H-benzo[c]azepin-2-yl)pyridin-2-yl)piperazin-1-yl)methyl)-1-(oxetan-2-ylmethyl)-1H-benzo[d]imidazole-6-carboxylic acid]	135
O=C(O)c1ccc2nc(CN3CCC(n4ccc(OCc5ccccc5)n4)CC3)n(C[C@@H]3CCO3)c2c1 [Compound 22, (S)-2-((4-(3-(benzyloxy)-1H-pyrazol-1-yl)piperidin-1-yl)methyl)-1-(oxetan-2-ylmethyl)-1H-benzo[d]imidazole-6-carboxylic acid]	3740
CS(=O)(=O)N1CCC(COc2cccc(N3CCN(Cc4nc5ccc(C(=O)O)cc5n4C[C@@H]4CCO4)CC3)n2)CC1 [Compound 52, (S)-2-((4-(6-((1-(methylsulfonyl)piperidin-4-yl)methoxy)pyridin-2-yl)piperazin-1-yl)methyl)-1-(oxetan-2-ylmethyl)-1H-benzo[d]imidazole-6-carboxylic acid]	> 500
O=C(O)c1ccc2nc(CN3CCN(c4nc(OCc5ccccc5)ns4)CC3)n(C[C@@H]3CCO3)c2c1 [Compound 32, (S)-2-((4-(3-(benzyloxy)-1,2,4-thiadiazol-5-yl)piperazin-1-yl)methyl)-1-(oxetan-2-ylmethyl)-1H-benzo[d]imidazole-6-carboxylic acid]	> 500
C[C@@H]1COC[C@H](N2CCC(c3cccc(OCc4ccc(C#N)cc4F)n3)CC2)c2nc3ccc(C(=O)O)cc3n21 [Compound 95, (1R,5R)-5-(4-(6-((4-cyano-2-fluorobenzyl)oxy)pyridin-2-yl)piperidin-1-yl)-1-methyl-1,2,4,5-tetrahydrobenzo[4,5]imidazo[1,2-d][1,4]oxazepine-9-carboxylic acid]	46.6
O=C(O)c1ccc2nc(CN3CCN(c4cccc(OCC5CCS(=O)(=O)CC5)n4)CC3)n(C[C@@H]3CCO3)c2c1 [Compound 54, (S)-2-((4-(6-((1,1-dioxidotetrahydro-2H-thiopyran-4-yl)methoxy)pyridin-2-yl)piperazin-1-yl)methyl)-1-(oxetan-2-ylmethyl)-1H-benzo[d]imidazole-6-carboxylic acid]	> 500
O=C(O)c1ccc2nc(CN3CCN(c4cccc(NCc5ccccc5)n4)CC3)n(C[C@@H]3CCO3)c2c1 [Compound 55, (S)-2-((4-(6-(benzylamino)pyridin-2-yl)piperazin-1-yl)methyl)-1-(oxetan-2-ylmethyl)-1H-benzo[d]imidazole-6-carboxylic acid]	42.3
N#Cc1ccc2c(c1)CCN(c1ccn(C3CCN(Cc4nc5ccc(C(=O)O)cc5n4C[C@@H]4CCO4)CC3)n1)CC2 [Compound 106, (S)-2-((4-(3-(7-cyano-1,2,4,5-tetrahydro-3H-benzo[d]azepin-3-yl)-1H-pyrazol-1-yl)piperidin-1-yl)methyl)-1-(oxetan-2-ylmethyl)-1H-benzo[d]imidazole-6-carboxylic acid]	> 500
O=C(O)c1ccc2nc(CN3CCN(c4cccc(OCc5cc6ccccc6s5)n4)CC3)n(C[C@@H]3CCO3)c2c1 [Compound 65, (S)-2-((4-(6-(benzo[b]thiophen-2-ylmethoxy)pyridin-2-yl)piperazin-1-yl)methyl)-1-(oxetan-2-ylmethyl)-1H-benzo[d]imidazole-6-carboxylic acid]	0.998

same assay, conditions: Table 3; cAMP Hunter CHO-K1 GLP1R Gs cells; percent activity normalized to Exendin-4

Structure (SMILES)	EC50 [nM]
N#Cc1ccc(COc2ncccc2[C@@]23CCN(Cc4nc5ccc(C(=O)O)cc5n4CC4CCO4)C[C@@H]2C3)c(F)c1 (single isomer, unassigned) [Compound 167, 2-((6-(2-((4-cyano-2-fluorobenzyl)oxy)pyridin-3-yl)-3-azabicyclo[4.1.0]heptan-3-yl)methyl)-1-(oxetan-2-ylmethyl)-1H-benzo[d]imidazole-6-carboxylic acid]	266
O=C(O)c1ccc2nc(CN3CCN(c4ccc5cc(-c6ccccc6)oc5n4)CC3)n(C[C@@H]3CCO3)c2c1 [Compound 160, (S)-1-(oxetan-2-ylmethyl)-2-((4-(2-phenylfuro[2,3-b]pyridin-6-yl)piperazin-1-yl)methyl)-1H-benzo[d]imidazole-6-carboxylic acid]	> 500
N#Cc1ccc2c(c1)CCC[C@H]2Oc1cccc(C2CCN(Cc3nc4ccc(C(=O)O)cc4n3C[C@@H]3CCO3)CC2)n1 (single isomer, unassigned) [Compound 146-P1]	> 500
CCn1cncc1Cn1c(CN2CC[C@@]3(c4cccc(N5CCc6cc(C#N)cc(F)c6C5)n4)C[C@H]3C2)nc2ccc(C(=O)O)cc21 [Compound 184-P1, 2-(((1R,6S)-6-(6-(6-cyano-8-fluoro-3,4-dihydroisoquinolin-2(1H)-yl)pyridin-2-yl)-3-azabicyclo[4.1.0]heptan-3-yl)methyl)-1-((1-ethyl-1H-imidazol-5-yl)methyl)-1H-benzo[d]imidazole-6-carboxylic acid]	0.266
N#Cc1ccc([C@@H]2CCc3c(cccc3N3CCN(Cc4nc5ccc(C(=O)O)cc5n4C[C@@H]4CCO4)CC3)O2)c(F)c1 (single isomer, unassigned) [Compound 151-P2]	> 500

Source: US20220089578A1, “COMPOUNDS AS GLP-1R AGONISTS” (Terns Pharmaceuticals, Inc., priority 2020, published 2022)
